The values below come from PubChem BioAssay AID1996.

Converted amounts (≈) assume the structure as drawn.

For the data set the following is noted: buffer; pH 7.4; 200.0 µM.
The term kinetic solubility denotes the concentration staying in solution when a stock, usually in DMSO, is diluted into the medium. For the molecule `O=C(C1CCC1)N1CCC(O)(c2cccc(F)c2)CC1`, the solubility (kinetic) worked out at 39.4 µg/mL (≈ 142 µM).

As for `COc1ccc2cc3c(nc2c1)OCC3`, the solubility (kinetic) was 25.2 µg/mL (≈ 125 µM).

For the molecule `O=C(CCC(=O)c1ccc(Cl)cc1)NCc1ccccc1`, the kinetic solubility was 14.3 µg/mL (≈ 47.4 µM).

`CCNC(=S)Nc1ccc(OC(F)(F)F)cc1` registered a solubility (kinetic) of over 39.6 µg/mL.

For `Cc1cc(=O)oc2cc(NC(=O)c3ccccc3C(=O)O)ccc12`, the kinetic solubility was over 48.5 µg/mL.

As for `CC(C)(C)NC(=S)Nc1cccc(C(F)(F)F)c1`, the kinetic solubility turned out to be 17.1 µg/mL (≈ 61.9 µM).

In the case of `Cc1cc(N2CCOCC2)n2cc(-c3ccccc3)nc2n1`, the solubility (kinetic) is 12.3 µg/mL (≈ 41.8 µM). This solubility kinetic and that of the molecule before are within 1.5-fold of each other.

Turning to `CCc1nnc(NC(=O)c2ccc(C)o2)s1`, the solubility (kinetic) was over 35.6 µg/mL.

`CC[n+]1ccc(/C=C/c2c[nH]c3ccccc23)cc1.[Cl-]` came in with a solubility (kinetic) of 32.8 µg/mL.

In turn, `O=C(Nc1ccc(F)cc1)Nc1ccc2c(c1)OCO2` had a solubility (kinetic) of 0.7 µg/mL (≈ 2.55 µM).

`COc1ccc(/C=C/C(=O)O)cc1S(=O)(=O)NCc1ccco1` gave a kinetic solubility of 48.8 µg/mL (≈ 145 µM).

Take `Cc1ccc(SCC(=O)N=C2NC(=O)CS2)cc1`: the kinetic solubility was determined as 35.9 µg/mL (≈ 128 µM).

Molecule `Cc1ccc(COC(=O)c2ccc3ccccc3n2)cc1` showed a kinetic solubility of 7.6 µg/mL (≈ 27.4 µM). Compared with the last molecule, the solubility kinetic is about 4.7-fold lower.

`CC(=O)Nc1ccc(C(=O)N2CCc3cc4c(cc3C2C)OCCCO4)cc1` (stereo not drawn) yielded a solubility (kinetic) of over 57.1 µg/mL.

`O=C(O)/C=C/C(=O)NCCCc1ccccc1` yielded a kinetic solubility of 19.8 µg/mL (≈ 84.9 µM).

Molecule `O=C1C2C3C=CC(CC3)C2C(=O)N1c1ccc([N+](=O)[O-])cc1` (stereo not drawn) showed a kinetic solubility of 3.4 µg/mL (≈ 11.4 µM).

In the case of `CCC(=O)N/C(=N/c1nc(C)cc(C)n1)Nc1ccccc1`, the solubility (kinetic) came out at 13 µg/mL (≈ 43.7 µM).

For the molecule `Cc1cnc(C(=O)OCC(=O)Nc2ccc(Cl)cn2)cn1`, the kinetic solubility is over 46 µg/mL.

The molecule `O=C(Nc1ccc(NS(=O)(=O)c2ccccc2)cc1)c1ccccc1Cl` yielded a kinetic solubility of 6.1 µg/mL (≈ 15.8 µM).

With `COc1cc(OC)cc(C(=O)Nc2ccc3c(c2)OCCO3)c1`, the kinetic solubility stood at 44.8 µg/mL (≈ 142 µM).

Turning to `O=[N+]([O-])c1ccccc1CN1CCN(Cc2ccc3ccccc3c2)CC1`, the solubility (kinetic) was determined as 3.9 µg/mL (≈ 10.8 µM).

The molecule `O=C(Nc1ccc(Cl)cc1)C1CCCCN1S(=O)(=O)c1ccccc1` (stereo not drawn) yielded a kinetic solubility of 24.7 µg/mL (≈ 65.2 µM).

The molecule `COc1cc2c(cc1OC)C(c1ccc(O)cc1)NCC2` (stereo not drawn) returned a kinetic solubility of over 42.8 µg/mL.

The molecule `O=C(COC(=O)c1ccc[nH]c1=O)Nc1ccc(N2CCCCC2)cc1` came in with a solubility (kinetic) of over 53.3 µg/mL.

Molecule `CCOC(=O)C1(Cc2ccccc2)CCCN(C(=O)C=C(C)C)C1` (stereo not drawn) yielded a solubility (kinetic) of 46.8 µg/mL (≈ 142 µM).

Molecule `O=C(c1cc2cc(F)ccc2[nH]1)N1CCC2(CC1)OCCO2` had a solubility (kinetic) of 20.2 µg/mL (≈ 66.4 µM). This solubility kinetic lies about 2.3-fold lower than the previous one.

As for `O=C(O)CCCNc1ccc(S(=O)(=O)N2CCCCC2)cc1`, the kinetic solubility was over 49 µg/mL.

On to `Cc1ccc(NC(=O)c2ccc3nsnc3c2)c(Cl)c1`, for which the kinetic solubility came to 0.5 µg/mL (≈ 1.65 µM).

Molecule `COc1cccc(NC(=O)Nc2cc(C)on2)c1` showed a kinetic solubility of over 37.1 µg/mL.

`O=C(NCCS(=O)(=O)NC1CCCC1)c1ccccc1` returned a solubility (kinetic) of over 44.5 µg/mL.

As to `O=c1c2cc([N+](=O)[O-])ccc2nc2n1CCC2`, the kinetic solubility is over 34.7 µg/mL.

For the molecule `O=C(NCCCCNC(=O)c1ccccn1)c1ccccn1`, the solubility (kinetic) was over 44.8 µg/mL.

With `CC(C)c1ccc(OCC(=O)Nc2ccncc2)cc1`, the solubility (kinetic) was 38.8 µg/mL (≈ 144 µM).

Take `O=C(NC(=S)Nc1ccc(Br)cc1F)C1CCCCC1`: the kinetic solubility was 0.9 µg/mL (≈ 2.51 µM).

Take `Cc1cc(NC(=O)CN2CCN(c3cccc(Cl)c3)CC2)no1`: the kinetic solubility came out at 45.5 µg/mL (≈ 136 µM).

Take `COc1ccc(N/C=C/C(=O)c2ccccc2)cc1`: the kinetic solubility is under 0.5 µg/mL.

Molecule `CC(C)(C)NS(=O)(=O)c1ccc(NC(=O)C2CCCO2)cc1` (stereo not drawn) yielded a kinetic solubility of 43.7 µg/mL (≈ 134 µM).

Turning to `O=C(NNC(=O)C1CCN(c2ncccn2)CC1)c1ccncc1`, the solubility (kinetic) was over 49 µg/mL.

As for `CN(C)c1cc(-c2ccc(Cl)c(Cl)c2)oc(=O)c1Cl`, the solubility (kinetic) is 0.7 µg/mL (≈ 2.2 µM).

Consider `CCc1cc2ccccc2nc1Cl`, for which the solubility (kinetic) was under 0.4 µg/mL.

`Cn1cc(C(=O)OCC(=O)NC2CCCC2)c2ccccc21` had a kinetic solubility of 7.2 µg/mL (≈ 24 µM).

`Cc1ccc(OCC(=O)NC2CCSc3ccccc32)cc1` (stereo not drawn) gave a kinetic solubility of 11.8 µg/mL (≈ 37.6 µM). Against the preceding molecule, the solubility kinetic is about 1.6-fold higher.

`COc1ccccc1OCC(=O)Nc1nc(C)c(C)s1` came in with a kinetic solubility of over 43.9 µg/mL.

`Cc1ccc(NC(=S)NC(C)(C)C)c([N+](=O)[O-])c1` gave a solubility (kinetic) of 8.2 µg/mL (≈ 30.7 µM).

As for `Cc1ccc(S(=O)(=O)CCC(=O)NC2CCCC2)cc1`, the kinetic solubility is over 44.3 µg/mL.

For `Cc1nc(SCC(=O)N2CCN(c3ccccn3)CC2)c(C#N)c(C)c1C`, the kinetic solubility was 41.8 µg/mL (≈ 110 µM).

The molecule `Cc1cc([N+](=O)[O-])cc2c1NC(=O)C2(O)N1CCCC(C)C1` (stereo not drawn) showed a kinetic solubility of 28.3 µg/mL (≈ 92.7 µM).

Turning to `CC(C)C(=O)Nc1ccccc1-c1nc2ccccc2[nH]c1=O`, the solubility (kinetic) is over 46.1 µg/mL.

On to `COc1cc(/C=C/C(=O)OCC(=O)NC(=O)NCc2ccco2)ccc1OC(F)F`, for which the kinetic solubility is 7.1 µg/mL (≈ 16.7 µM).

Turning to `CCOc1cc(-c2nc3n(c(=O)c2C#N)CCS3)ccc1O`, the solubility (kinetic) was 5.7 µg/mL (≈ 18.1 µM). The solubility kinetic values of the last two molecules are within 1.5-fold of each other.

As for `COc1ccc(CNC(=S)Nc2ccccc2Cl)cc1`, the solubility (kinetic) turned out to be 12 µg/mL (≈ 39.1 µM).

The molecule `COc1cc2cc(C(=O)NCCc3ccccc3)[nH]c2cc1OC` gave a kinetic solubility of 1 µg/mL (≈ 3.08 µM).

The molecule `COCc1cc(C)nc(Oc2ccccc2)c1C#N` had a kinetic solubility of over 38.1 µg/mL.
